This assay concerns soy. The conditions noted are these: in-furrow, five grams per acre, versus check; for average soybean seed weight per pot: FIG. 49.

Text: The Generate was applied at a rate one pint per acre. The remaining compositions were applied at a rate of five grams per acre. The soy was planted in May and harvested in October, with fertilizer applications in June and July.

For the substance nickel lactate, the “average soybean seed weight per pot” value is reported as “increase seed weight over the check”. Besides, the “total average soybean seed weight” value (FIG. 48) was “increase total average soybean seed weight above the check”.
As for nickel ammonium citrate, the “average soybean seed weight per pot” value is recorded as “increase seed weight over the check”.

The values above are taken from patent US20200187505A1, “SEED, SOIL, AND PLANT TREATMENT COMPOSITIONS” (RALCO NUTRITION, INC., priority 2017, published 2020).
